Assay results reported in patent US6914045B2, “Glycopeptide antibiotics” (Wyeth Holdings Corporation, priority 2001, dated 2005).
Converted amounts (≈) assume the structure as drawn.

Tests used:
Enterococcus sp. = assay: in vitro antibacterial evaluation, MIC by broth dilution; assay type: cell-based; details: broth dilution, 18 hours at 35° C.
How it was run: (§1)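 Broth dilution per NCCLS M7-A2 in Mueller-Hinton II medium, inoculum 5×10^5 CFU/mL, antibiotic range 64-0.06 μg/mL. MIC taken as lowest concentration inhibiting growth; Gram-positive panel includes recent clinical isolates resistant to methicillin, penicillin and/or vancomycin.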

Escherichia coli = assay: as above; assay type: cell-based; details: 18 hours at 35° C.
How it was run: as §1

Staphylococcus sp. = assay: as above; assay type: cell-based; details: broth dilution, 18 hours at 35° C.
How it was run: as §1

Streptococcus sp. = assay: as above; assay type: cell-based; details: broth dilution, 18 hours at 35° C.
How it was run: as §1

[1] = test system: Staphylococcus aureus-SMITH (GC 4543); assay: acute lethal infection in mice; assay type: in vivo; details: acute lethal infection, female CD-1 mice, intraperitoneal challenge, intravenous 30 min. after infection, 7 day survival
How it was run: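 ED50 from 7 day survival ratios pooled over 3 separate tests. Female CD-1 mice, 20+/−2 gm, ip bacterial challenge (trypticase soy broth or hog gastric mucin) lethal to untreated controls in 24-48 hr; iv dosing 30 min after infection in saline or 5% dextrose, n=5/dose.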

Structure (SMILES): CC(c1ccccc1)C1NC(=O)CNC(=O)C(CO)NC(=O)C(C(O)C2CNC(=N)N2C2OC(CO)C(O)C(O)C2O)NC(=O)C(C(O)C2CNC(=N)N2)NC(=O)C(Cc2ccc(OC3OC(CO)C(OC4OC5COC(Cc6ccc(Cl)cc6)OC5C(O)C4O)C(O)C3O)cc2)NC1=O (stereo not drawn) [Example 120, Cyclo[glycyl-β-methylphenylalanyl-O-[4-O-[4,6-O-(4-chlorophenethylidene)hexopyranosyl]-hexopyranosyl]tyrosyl-3-(2-iminoimidazolidin-4-yl)seryl-3-(3-hexopyranosyl-2-iminoimidazolidin-4-yl)serylseryl]]
- MIC Enterococcus avium (GC 4558) (Enterococcus sp.; Enterococcus avium (GC 4558)): 1 µg/mL (≈ 0.698 µM)
- MIC Enterococcus faecalis (ATCC 29212) (Enterococcus sp.; Enterococcus faecalis (ATCC 29212)): 1 µg/mL (≈ 0.698 µM)
- MIC Enterococcus faecalis (GC 2242) (Enterococcus sp.; Enterococcus faecalis (GC 2242)): 1 µg/mL (≈ 0.698 µM)
- MIC Enterococcus faecalis (GC 2691) (Enterococcus sp.; Enterococcus faecalis (GC 2691)): 1 µg/mL (≈ 0.698 µM)
- MIC Enterococcus faecalis (GC 3059) (Enterococcus sp.; Enterococcus faecalis (GC 3059)): 1 µg/mL (≈ 0.698 µM)
- MIC Enterococcus faecalis (GC 4552) (Enterococcus sp.; Enterococcus faecalis (GC 4552)): 1 µg/mL (≈ 0.698 µM)
- MIC Enterococcus faecalis (GC 4553) (Enterococcus sp.; Enterococcus faecalis (GC 4553)): 1 µg/mL (≈ 0.698 µM)
- MIC Enterococcus faecalis (GC 4554) (Enterococcus sp.; Enterococcus faecalis (GC 4554)): 1 µg/mL (≈ 0.698 µM)
- MIC Enterococcus faecalis (GC 6189) (Enterococcus sp.; Enterococcus faecalis (GC 6189)): 1 µg/mL (≈ 0.698 µM)
- MIC Enterococcus faecium (GC 2243) (Enterococcus sp.; Enterococcus faecium (GC 2243)): 1 µg/mL (≈ 0.698 µM)
- MIC Enterococcus faecium (GC 4556) (Enterococcus sp.; Enterococcus faecium (GC 4556)): 1 µg/mL (≈ 0.698 µM)
- MIC Enterococcus faecium (GC 4557) (Enterococcus sp.; Enterococcus faecium (GC 4557)): 1 µg/mL (≈ 0.698 µM)
- MIC Enterococcus faecalis (ATCC 29212) (Enterococcus sp.; strain ATCC 29212): 1 µg/mL (≈ 0.698 µM)
- MIC Enterococcus faecalis (GC 2242) (Enterococcus sp.; strain GC 2242): 1 µg/mL (≈ 0.698 µM)
- MIC Enterococcus faecium (GC 2243) (Enterococcus sp.; strain GC 2243): 1 µg/mL (≈ 0.698 µM)
- MIC Enterococcus faecalis (GC 2691) (Enterococcus sp.; strain GC 2691): 1 µg/mL (≈ 0.698 µM)
- MIC Enterococcus faecalis (GC 3059) (Enterococcus sp.; strain GC 3059): 1 µg/mL (≈ 0.698 µM)
- MIC Enterococcus faecalis (GC 4552) (Enterococcus sp.; strain GC 4552): 1 µg/mL (≈ 0.698 µM)
- MIC Enterococcus faecalis (GC 4553) (Enterococcus sp.; strain GC 4553): 1 µg/mL (≈ 0.698 µM)
- MIC Enterococcus faecalis (GC 4554) (Enterococcus sp.; strain GC 4554): 1 µg/mL (≈ 0.698 µM)
- MIC Enterococcus faecium (GC 4556) (Enterococcus sp.; strain GC 4556): 1 µg/mL (≈ 0.698 µM)
- MIC Enterococcus faecium (GC 4557) (Enterococcus sp.; strain GC 4557): 1 µg/mL (≈ 0.698 µM)
- MIC Enterococcus avium (GC 4558) (Enterococcus sp.; strain GC 4558): 1 µg/mL (≈ 0.698 µM)
- MIC Enterococcus faecalis (GC 6189) (Enterococcus sp.; strain GC 6189): 1 µg/mL (≈ 0.698 µM)
- MIC Escherichia coli (ATCC 25922) (Escherichia coli; strain ATCC 25922): 16 µg/mL (≈ 11.2 µM)
- MIC Escherichia coli (GC 4559) (Escherichia coli; strain GC 4559): 16 µg/mL (≈ 11.2 µM)
- MIC Escherichia coli (GC 4560) (Escherichia coli; strain GC 4560): <0.5 µg/mL
- MIC Coagulase Negative Staphylococcus (GC 4547) (Staphylococcus sp.): 1 µg/mL (≈ 0.698 µM)
- MIC Coagulase Negative Staphylococcus (GC 4548) (Staphylococcus sp.): <0.5 µg/mL
- MIC Coagulase Negative Staphylococcus (GC 4549) (Staphylococcus sp.): <0.5 µg/mL
- MIC Coagulase Negative Staphylococcus (GC 4551) (Staphylococcus sp.): <0.5 µg/mL
- MIC Coagulase Negative Staphylococcus (GC 6257) (Staphylococcus sp.): <0.5 µg/mL
- MIC Staphylococcus aureus (ATCC 29213) (Staphylococcus sp.): <0.5 µg/mL
- MIC Staphylococcus aureus (GC 1131) (Staphylococcus sp.): <0.5 µg/mL
- MIC Staphylococcus aureus (GC 3051) (Staphylococcus sp.): <0.5 µg/mL
- MIC Staphylococcus aureus (GC 3053) (Staphylococcus sp.): 1 µg/mL (≈ 0.698 µM)
- MIC Staphylococcus aureus (GC 4541) (Staphylococcus sp.): <0.5 µg/mL
- MIC Staphylococcus aureus (GC 4542) (Staphylococcus sp.): <0.5 µg/mL
- MIC Staphylococcus aureus (GC 4544) (Staphylococcus sp.): <0.5 µg/mL
- MIC Staphylococcus aureus (GC 4545) (Staphylococcus sp.): <0.5 µg/mL
- MIC Staphylococcus aureus-SMITH (GC 4543) (Staphylococcus sp.): <0.5 µg/mL
- MIC Staphylococcus haemolyticus (GC 4546) (Staphylococcus sp.): <0.5 µg/mL
- MIC Staphylococcus aureus (GC 1131) (Staphylococcus sp.; inoculum 5×10^5 CFU/mL, strain GC 1131): <0.5 µg/mL
- MIC Staphylococcus aureus (ATCC 29213) (Staphylococcus sp.; strain ATCC 29213): <0.5 µg/mL
- MIC Staphylococcus aureus (GC 3051) (Staphylococcus sp.; strain GC 3051): <0.5 µg/mL
- MIC Staphylococcus aureus (GC 3053) (Staphylococcus sp.; strain GC 3053): 1 µg/mL (≈ 0.698 µM)
- MIC Staphylococcus aureus (GC 4541) (Staphylococcus sp.; strain GC 4541): <0.5 µg/mL
- MIC Staphylococcus aureus (GC 4542) (Staphylococcus sp.; strain GC 4542): <0.5 µg/mL
- MIC Staphylococcus aureus (GC 4544) (Staphylococcus sp.; strain GC 4544): <0.5 µg/mL
- MIC Staphylococcus aureus (GC 4545) (Staphylococcus sp.; strain GC 4545): <0.5 µg/mL
- MIC Staphylococcus haemolyticus (GC 4546) (Staphylococcus sp.; strain GC 4546): <0.5 µg/mL
- MIC Coagulase Negative Staphylococcus (GC 4547) (Staphylococcus sp.; strain GC 4547): 1 µg/mL (≈ 0.698 µM)
- MIC Coagulase Negative Staphylococcus (GC 4548) (Staphylococcus sp.; strain GC 4548): <0.5 µg/mL
- MIC Coagulase Negative Staphylococcus (GC 4549) (Staphylococcus sp.; strain GC 4549): <0.5 µg/mL
- MIC Coagulase Negative Staphylococcus (GC 4551) (Staphylococcus sp.; strain GC 4551): <0.5 µg/mL
- MIC Coagulase Negative Staphylococcus (GC 6257) (Staphylococcus sp.; strain GC 6257): <0.5 µg/mL
- MIC Staphylococcus aureus-SMITH (GC 4543) (Staphylococcus sp.; strain SMITH GC 4543): <0.5 µg/mL
- MIC Streptococcus agalactiae (GC 4564) (Streptococcus sp.; Streptococcus agalactiae (GC 4564)): <0.5 µg/mL
- MIC Streptococcus pneumoniae (ATCC 6301) (Streptococcus sp.; Streptococcus pneumoniae (ATCC 6301)): <0.5 µg/mL
- MIC Streptococcus pneumoniae (GC 1894) (Streptococcus sp.; Streptococcus pneumoniae (GC 1894)): <0.5 µg/mL
- MIC Streptococcus pneumoniae (GC 4565) (Streptococcus sp.; Streptococcus pneumoniae (GC 4565)): <0.5 µg/mL
- MIC Streptococcus pyogenes (GC 4563) (Streptococcus sp.; Streptococcus pyogenes (GC 4563)): <0.5 µg/mL
- MIC Streptococcus pneumoniae (ATCC 6301) (Streptococcus sp.; strain ATCC 6301): <0.5 µg/mL
- MIC Streptococcus pneumoniae (GC 1894) (Streptococcus sp.; strain GC 1894): <0.5 µg/mL
- MIC Streptococcus pyogenes (GC 4563) (Streptococcus sp.; strain GC 4563): <0.5 µg/mL
- MIC Streptococcus agalactiae (GC 4564) (Streptococcus sp.; strain GC 4564): <0.5 µg/mL
- MIC Streptococcus pneumoniae (GC 4565) (Streptococcus sp.; strain GC 4565): <0.5 µg/mL
- median effective dose (ED50), Staphylococcus aureus-SMITH (GC 4543) [1]: 0.06 mg/kg
